Test results published in patent US9593305B2, “Differentiation of pluripotent stem cells” (Janssen Biotech, Inc., priority 2008, dated 2017).

Legend:
[1] = test system: H1 human embryonic stem cells; assay: Dose ranging of compounds with activin A or GDF-8, SOX17 and cell number (Example 15); format: cell-based; settings: for SOX17 expression in combination with GDF-8 / cell numbers at the end of assay in combination with GDF-8: 78 nM to 10 μM compound with 100 ng/ml GDF-8; for SOX17 expression with activin A treatment: 78 nM to 10 μM compound with 100 ng/ml activin A, one or three days of compound
Experimental: Stock cultures of human embryonic stem cells (H1 human embryonic stem cell line) were maintained in an undifferentiated, pluripotent state on reduced growth factor […]™ (BD Biosciences; Cat #356231)-coated dishes in MEF conditioned medium supplemented with 8 ng/ml bFGF (PeproTech Inc.; Cat #100-18B) with passage on average every four days. Passage was performed, by exposing cell cultures to a solution of 1 mg/ml dispase (Invitrogen; Cat #17105-041) for 5 to 7 minutes at 37° C. followed by rinsing the monolayer with MEF conditioned culture medium and gentle scraping to recover cell clusters. Clusters were centrifuged at low speed to collect a cell pellet and remove residual dispase. Cell clusters were split at a 1:3 or 1:4 ratio for routine maintenance culture or a 1:1 ratio for immediate assay. All human embryonic stem cell lines were maintained at passage numbers less than 50 and routinely evaluated for normal karyotype and absence of mycoplasma.
Cell clusters were evenly resuspended in MEF conditioned medium supplemented with 8 ng/ml bFGF and seeded onto reduced growth factor […]™-coated 96-well Packard VIEWPLATES (PerkinElmer; Cat #6005182) in volumes of 0.1 ml/well. Daily feeding was conducted by aspirating spent culture medium from each well and replacing with an equal volume of fresh medium. Plates were maintained at 37° C., 5% CO2 throughout the duration of assay.
Assay was initiated by aspirating the culture medium from each well and adding back aliquots (100 μl) of test medium. Test conditions were performed in quadruplicate over a total four-day assay period, feeding daily by aspirating and replacing the medium from each well with fresh test medium. […] Test compounds in this assay included six of the compounds of the present invention: Compound 181, Compound 180, Compound 19, Compound 202, Compound 40, and Compound 34, and a commercial GSK31 inhibitor BIO (EMD Chemicals, Inc.; Cat #361550). On the first day of assay, wells were treated with various control or experimental conditions. Control conditions, with final assay concentrations as indicated, were as follows: 1) growth medium alone; 2) 20 ng/ml Wnt3a only R&D Systems; Cat #1324-WN/CF); 3) 100 ng/ml activin A (PeproTech; Cat #120-14); 4) 100 ng/mlactivin A and 20 ng/ml Wnt3a; 5) 100 ng/ml GDF-8 (R&D Systems, Cat #788-G8); 6) 100 ng/ml GDF-8 and 20 ng/ml Wnt3a. Test compounds were diluted two-fold in series to yield a concentration range from 78 nM to 10 μM in the final assay. Experimental test samples combined each individual compound dilution series with 100 ng/ml activin A or 100 ng/ml GDF-8, both treatment sets in the absence of Wnt3a. On the second and third day of assay, some wells continued to be treated with 20 ng/ml Wnt3a or diluted test compound in combination with either activin A or GDF-8. In other wells, activin A or GDF-8 treatment continued on the second and third day of assay, but Wnt3a or diluted test compound was removed.
At the conclusion of culture, assay plates were washed once with PBS (Invitrogen; Cat #14190), fixed with 4% paraformaldehyde (Alexis Biochemical; Cat #ALX-350-011) at room temperature for 20 minutes, then washed three times with PBS and permeabilized with 0.5% Triton X-100 (Sigma; Cat #T8760-2) for 20 minutes at room temperature. Cells were washed again three times with PBS and blocked with 4% chicken serum (Invitrogen; Cat #16110082) in PBS for 30 minutes at room temperature. Primary antibody (goat anti-human SOX17; R&D Systems; Cat #AF1924) was diluted 1:100 in 4% chicken serum and added to each well for two hours at room temperature. After washing three times with PBS, Alexa Fluor 488 conjugated secondary antibody (chicken anti-goat IgG; Invitrogen; Cat #A21467) diluted 1:200 in PBS was added to each well. To counterstain nuclei, 5 μg/ml Hoechst 33342 (Invitrogen; Cat #H3570) was added for fifteen minutes at room temperature. Plates were washed once with PBS and left in 100 μl/well PBS for imaging. […]

[2] = test system: H1 human embryonic stem cells; assay: Step-wise differentiation, FACS for CXCR4 after step 1 (Example 12); format: cell-based; settings: compared to activin A and Wnt3a
Experimental: The assay was initiated by aspirating the culture medium from each well and adding back an aliquot (0.5 ml) of test medium. Test conditions for the first step of differentiation were conducted over a three-day period, feeding daily by aspirating and replacing the medium from each well with fresh test medium. On the first day of assay, 100 ng/ml activin A (PeproTech; Cat #120-14) or 200 ng/ml GDF-8 (R&D Systems, Cat #788-G8) was added to respective assay wells where each growth factor was diluted into RPMI-1640 medium (Invitrogen; Cat #22400) with 1% Albumin Bovine Fraction V, Fatty Acid Free (FAF BSA) (MP Biomedicals, Inc; Cat 152401), 1% Probumin (Millipore; Cat #81-068-3) and 20 ng/ml Wnt3a (R&D Systems; Cat #1324-WN/CF). On the second day of assay, 100 ng/ml activin A or 200 ng/ml GDF-8 was diluted into RPMI-1640 medium supplemented with 2% FAF BSA without Wnt3a. In some test samples using GDF-8, Wnt3a was replaced with a either Compound 34 or Compound 56 at a concentration of 2.5 μM, and either Compound 34 or Compound 56 was added daily during all three days of definitive endoderm differentiation. At the conclusion of the first step of differentiation, cells from some wells were harvested for flow cytometry analysis to evaluate levels of CXCR4, a marker of definitive endoderm formation. Additional wells were harvested for RT-PCR analysis to measure other markers of differentiation.
Cells for FACS analysis were blocked in a 1:5 solution of 0.5% human gamma-globulin (Sigma; Cat#G-4386) in PBS (Invitrogen; Cat #14040-133): BD FACS staining buffer-BSA (BD; Cat #554657) for 15 minutes at 4° C. Cells were then stained with antibodies for CD9 PE (BD; Cat #555372), CD99 PE (Caltag; Cat #MHCD9904) and CXCR4 APC(R&D Systems; Cat#FAB 173A) for 30 minutes at 4° C. After a series of washes in BD FACS staining buffer, the cells were stained for viability with 7-AAD (BD; Cat #559925) and run on a BD FACSAiray. A mouse IgG1K Isotype control antibody for both PE and APC was used to gate percent positive cells.

[3] = 200 ng/ml GDF-8 with 2.5 μM compound all three days

| Compound | SOX17 expression in combination with GDF-8 [1] | cell numbers at the end of assay in combination with GDF-8 [1] | SOX17 expression with activin A treatment [1] | percentage of CXCR4 positive cells after step 1 [2, 3] | percentage of CXCR4 positive cells after step 1 ([2]; 200 ng/ml GDF-8 with Wnt3a) | SOX17 expression, control treatments ([1]; 100 ng/ml activin A versus 100 ng/ml GDF-8, alone or with Wnt3a) |
| --- | --- | --- | --- | --- | --- | --- |
| C=CCN1CC(=O)NCCCc2cncc(c2)-c2ncnc(n2)Nc2cccc(c2)C1 [Compound 40, 14-Prop-2-en-1-yl-3,5,7,14,17,23,27-heptaazatetracyclo[19.3.1.1˜2.6˜0.1˜8,12˜]heptacosa-1(25), 2(27), 3,5,8(26), 9,11,21,23-nonaen-16-one] | significantly improved SOX17 expression | enhanced cell numbers | did not enhance SOX 17 expression |  |  |  |
| Cc1c[nH]c(-c2cnc(NCCNc3ccc(C#N)cn3)nc2-c2ccc(Cl)cc2Cl)n1 [Compound 56, 6-[(2-{[4-(2,4-Dichlorophenyl)-5-(4-methyl-1H-imidazol-2-yl)pyrimidin-2-yl]amino}ethyl)amino]pyridine-3-carbonitrile] |  |  |  | equivalent or higher percentage of CXCR4 positive cells |  |  |
| GDF-8: growth factor GDF-8, also known as myostatin, member of the TGF-β family |  |  |  |  | equivalent percentage of CXCR4 positive cells |  |
| Activin A: recombinant human activin A (PeproTech), TGF-beta family member |  |  |  |  |  | significantly higher SOX17 expression |
| O=C1CCN2CCN(CC2)Cc2cc(Cl)cc(c2)Nc2ncnc(n2)-c2cncc(c2)CCCN1 [Compound 34, 5-Chloro-1,8,10,12,16,22,26,32-octaazapentacyclo[24.2.2.1˜3.7˜0.1˜9,13˜0.1˜14.18˜]tritriaconta-3(33), 4,6,9(32), 10,12,14(31), 15,17-nonaen-23-one] | significantly improved SOX17 expression | enhanced cell numbers | did not enhance SOX 17 expression | equivalent or higher percentage of CXCR4 positive cells |  |  |
| CN1CCC(=O)NCCCc2cncc(c2)-c2ncnc(n2)Nc2cccc(c2)C1 [Compound 19, 14-Methyl-3,5,7,14,18,24,28-heptaazatetracyclo[20.3.1.1˜2,6˜0.1˜8,12˜]octacosa-1(26), 2(28), 3,5,8(27), 9,11,22,24-nonaen-17-one] | significantly improved SOX17 expression | enhanced cell numbers | did not enhance SOX 17 expression |  |  |  |
